The values that follow come from patent US20020086065A1, “Methods and compositions for the benefit of those suffering from polycystic ovary syndrome with chromium complexes” (priority 2000, published 2002).

Series [1] deals with subject presenting with PCOS. In words: Example: oral chromium picolinate/picolinic acid tablet in a subject presenting with PCOS. To be noted: daily dose of 1,000 μg of chromium. The series is classed as in vivo. The procedure:
A subject presenting with PCOS is identified. The subject is orally administered a tablet comprising chromium picolinate and picolinic acid at a ratio of 1:10 w/w at a daily dose of 1,000 μg of chromium. The tablet additionally comprises guaifenesin and ibuprofen in a pharmaceutically effective dose. Over the course of several weeks, a decrease in body mass and improved lipid profile is observed. The chromic picolinate sensitizes the subject's insulin and the symptoms of PCOS are reduced.

The conditions of series [2]: rats, oral CrCl3 with the NSAID; cited from earlier work.
The subject of a further series is women with PCOS. As to conditions: 14 women with PCOS, metformin 850 mg three times a day for 12 weeks; cited from earlier work.

Regarding chromic picolinate, in series [1], the “effect on the subject's insulin” value was “sensitizes”.

`CC(=O)Oc1ccccc1C(=O)O` [aspirin]: the “Chromium absorption following oral administration of CrCl3” value in series [2] is on record as “facilitated”.

For the compound `CN(C)C(=N)N=C(N)N` [metformin], in the series with women with PCOS, the 17-hydroxy progesterone level result is “unchanged”, the “Body mass index (BMI)” value is “unchanged”, the DHEAS level result is given as “unchanged” and the Free testosterone level result is recorded as “unchanged”. For the same compound, in the series on women with PCOS, the androstenedione level result is reported as “unchanged”, the estradiol level entry is recorded as “unchanged”, the “follicle-stimulating hormone (FSH) level” value is listed as “unchanged” and the insulin secretion entry was “not improved”. For the same compound, in the series on women with PCOS, the progesterone level result is “unchanged” and the “stimulated LH level” value was “unchanged”.
